Here are results for five compounds from patent US20160263140A1, “USE OF COMPOUNDS ACTIVATING SIRT-3 FOR MIMICKING EXERCISE” (President and Fellows of Harvard College, priority 2007, published 2016).

Structures are written as SMILES. Entries after “also recorded” stand apart in the source; their conditions may differ.

In series [1] the test system is HEK293 cells. The series can be described thus: Cell death assay after MMS treatment (FACS, propidium iodide). The note with it: for effect on Nampt-mediated cell protection/survival against MMS: HEK293 cells stably overexpressing Nampt, MMS treatment, sirtinol 100 μM. It is filed as cell-based. How it is done:
Human embryonic kidney (HEK293) and human fibrosarcoma HT1080 cell lines were obtained from ATCC and grown in complete DMEM medium with 10% FBS and 100 μg/ml penicillin/streptomycin. To generate Nampt overexpression or empty vector stable clones, hNAMPT/pcDNA or pcDNA empty vector were transfected into HEK293 or HT1080 cells and selected with 0.5-1.0 mg/ml geneticin. To generate Nampt knockdown cells, siRNA/NAMPT/pMSCV or pMSCV empty vector were transfected into HT1080 cells, and stable clones were selected with 500 ng/ml puromycin. Primary neonatal rat cardiomyocytes were prepared as described previously (Matsui et al., 1999). Isolated cardiomyocytes were grown in complete medium (RPMI 1640, 5% fetal calf serum, 10% horse serum) to 80% confluence before cells were subjected to hypoxia and/or serum starvation. For hypoxia, medium was changed to RPMI 1640 with or without serum saturated with 95% N2/5% CO2 and then cells were placed in a 37° C. airtight box saturated with 95% N2/5% CO2 for 18 hours. O2 concentrations were <0.1% (Ohmeda oxygen monitor, type 5120). To serum starve HT1080, cells were grown in DMEM medium containing no serum. Cells were harvested after 26 h of serum starvation and Nampt expression was analyzed by Western blotting.
(§1) HEK293 and HT1080 cells at less than 85% confluency were treated with MMS (1.2 mM) for 6-8.5 h and 8-17 h, respectively. Transiently transfected cells were washed 3 times with PBS to remove residual transfection reagents before treating with MMS. HEK293 cells and HT1080 cells were exposed to etoposide for 72 h or 46 h, at 120 or 40 μM, respectively. HT1080 cells were exposed to camptothecin at 14 μM for 23 h. After drug treatments, cells were harvested by trypsinization, pelleted by centrifugation and resuspended in PBS containing 3% FBS. Cell death was analyzed by FACS using propidium iodide (PI) staining. Cells transiently-transfected with mNAMPT/MSCV, SIRT1-7 siRNA, Nmnat-3, or hMFT siRNA oligos and co-transfected with FAM-labeled scrambled siRNA oligos, percent cell death was determined by as the proportion of PUGFP or PIFAM positive cells versus the total number of cells with green fluorescence.

For another series, the system named is GLUT4. The series can be described thus: GLUT4 protein expression in SIRT3-expressing C2C12 myotubes (Western blot). It counts as cell-based, murine. The conditions noted are these: 40 μM, 3-hour treatment. On the procedure: (§2) C2C12 myocytes and BOSC23 cells were cultured in Dulbecco's modified Eagle's medium containing 10% bovine calf serum. For C2C12 differentiation, at confluence, cells were incubated in Dulbecco's modified Eagle's medium with 2% horse serum (Hyclone, Logan, Utah) for three days. Inhibition of AMPK in selected studies was achieved by adding compound C (6-[4-(2-Piperidin-1-yl-ethoxy)-phenyl)]-3-pyridin-4-yl-pyrrazolo[1,5-a]-pyrimidine, Merck) (31) to the media for 3 hours at a final concentration of 40 μM. […]
A general note: In western blotting, separated proteins are transferred to a membrane and probed.

In another series the test system is AMPK. The series can be described thus: AMPK phosphorylation in C2C12 myotubes (Western blot). The note with it: 40 μM, 3-hour treatment; vector- and SIRT3-transfected C2C12 myotubes. It is filed as cell-based, murine. How it is done: as §2
The subject of series [2] is mitochondria from fresh rat livers. The series can be described thus: NAD+ levels in isolated liver mitochondria by HPLC-MALDI-MS. The conditions noted are these: for change of mitochondrial NAD+ levels (in words): FK866 10 nM and/or MMS 1:1000, 30 min at 37° C. How it is done: Unless otherwise stated, fractionation of cultured cells was performed using a differential centrifugation and sucrose gradient procedure with slight modifications (Schwer et al., 2002). For drug treatment of mitochondria, fresh mitochondria were obtained from livers excised from fed young male rats. Half of the liver homogenate was used for mitochondrial isolation using a commercially available kit as described by manufacturer's instructions, designated Protocol 1 (Pierce Mitochondrial Isolation kit, Rockford, Ill.). The other half of the original homogenate was subjected to a differential centrifugation protocol to isolate mitochondria (Protocol 2). Mitochondria (500 μl) were added to a 48-well plate and treated with methylmethane sulfonate (MMS) at 1:1000 dilution and/or FK866 (10 nM) for 30 min at 37° C. Suspensions were spun down for 1 min at 14,000 rpm at 4° C. and pellets were stored at −80° C. prior to NAD^+ analysis by HPLC-MALDI-MS. Detailed protocols are described in Supplemental Information.
NAD^+ was determined by as described previously (Sauve and Schramm, 2003), with the following modifications. HEK293 or HT1080 cells were harvested by trypsinization and counted by haemocytometer. NAD^+ was extracted from whole cells or mitochondrial pellets by adding 10% perchloric acid and sonicating for 5 min on ice. The reference standard ^18O-NAD^+ (typically […]) was then added to the sample. After mixing well, samples were centrifuged for 3 min then neutralized with NaOH. NAD^+ in the supernatant (100 μL sample) was separated from other cellular components by HPLC. NAD^+ peaks were collected according to the standards' retention time and dried with a lyophilizor. […] The volume of mitochondrial pellets was calculated by considering the density of the mitochondria pellets to be 1.0 μL/mg. Total cellular NAD^+ concentrations were calculated by dividing the quantity of NAD^+ per cell by the mean cell volume (MCV) as measured by a Coulter counter, which for HT1080 was […] and for HEK293 was […]. […]

For series [3], the system named is HEK293 cells. The series can be described thus: Total cellular NAD+ by HPLC-MALDI-MS after MMS. The note with it: 1.2 mM MMS, 2 and 4 h, irrespective of Nampt levels. It counts as cell-based, human. How it is done:
as §1
NAD^+ was determined by as described previously (Sauve and Schramm, 2003), with the following modifications. HEK293 or HT1080 cells were harvested by trypsinization and counted by haemocytometer. NAD^+ was extracted from whole cells or mitochondrial pellets by adding 10% perchloric acid and sonicating for 5 min on ice. […] The volume of mitochondrial pellets was calculated by considering the density of the mitochondria pellets to be 1.0 μL/mg. […]

For `CC(NC(=O)c1ccccc1/N=C/c1c(O)ccc2ccccc12)c1ccccc1` (stereo not shown) [sirtinol], in the series on HEK293 cells [1], the “effect on Nampt-mediated cell protection/survival against MMS” value is on record as “did block the ability of Nampt overexpression to protect cells”.

Take `c1cc(-c2cnn3cc(-c4ccc(OCCN5CCCCC5)cc4)cnc23)ccn1` [compound C]: the “ability of SIRT3 to increase GLUT4 protein expression” value in the series on GLUT4 is “completely abolished”. Further, in the series with AMPK, the AMPK phosphorylation result is listed as “decreased AMPK phosphorylation”.

As to `O=C(/C=C/c1cccnc1)NCCCCC1CCN(C(=O)c2ccccc2)CC1` [FK866], the “change of mitochondrial NAD+ levels (in words)” value in series [2] was “even larger decreases in mitochondrial NAD+ levels; also recorded: reduced”. Besides, the “effect on Nampt-mediated cell protection/survival against MMS” value with HEK293 cells [1] is on record as “prevented cell protection by Nampt overexpression; also recorded: the effect is blocked”.

As to `O=C1NCCc2c(OCCCCN3CCCCC3)cccc21` [DPQ, 3,4-dihydro-5-[4-(1-piperidinyl)butoxy]-1(2H)-isoquinolinone], the “extent of MMS-induced cell death” value with HEK293 cells [1] (HEK293 cells, MMS, 30 μM DPQ) is listed as “greatly reduced; also recorded: Attenuated”.

Consider `COS(C)(=O)=O` [MMS, methylmethane sulfonate], for which the “total NAD+ concentration after MMS treatment” value in the series with HEK293 cells [3] is under 100 µM. The “change of mitochondrial NAD+ levels (in words)” value in series [2] is listed as “reduced”. Moreover, the “reduction of mitochondrial NAD+ levels” value in series [2] (MMS 1:1000 dilution, 30 min at 37° C.) is about 2 fold. Besides, the “cell death caused by MMS treatment” value with HEK293 cells [1] (1.2 mM MMS, vector control cells) is “death of about half the vector control cells”.
